Entries after “also recorded” stand apart in the source; their conditions may differ.
Key:
[1] = Plasma noribogaine pharmacokinetics after ascending single oral doses in healthy volunteers; type: in vivo, human; details: for mean AUC/24 hr / mean AUC/24: fasting, serum; for CL/F: fasted healthy volunteers, mean (SD), n = 6
Excerpt: Thirty-six healthy, drug-free male volunteers, aged between 18-55 years, were enrolled in and completed the study. This was an ascending single-dose, placebo-controlled, randomized double blind, parallel group study. Mean (SD) age was 22.0 (3.3) years, mean (SD) height was 1.82 (0.08) m, and mean (SD) weight was 78.0 (9.2) kg. Twenty-six subjects were Caucasian, 3 were Asian, 1 Maori, 1 Pacific Islander, and 5 Other. The protocol for this study was approved by the Lower South Regional Ethics Committee (LRS/12/06/015), and the study was registered with the Australian New Zealand Clinical Trial Registry (ACTRN12612000821897). All subjects provided signed informed consent prior to enrolment, and were assessed as suitable to participate based on review of medical history, physical examination, safety laboratory tests, vital signs and ECG.
Within each dose level, 6 participants were randomized to receive noribogaine and 3 to receive placebo, based on a computer-generated random code. Dosing began with the lowest noribogaine dose, and subsequent cohorts received the next highest dose after the safety, tolerability, and blinded pharmacokinetics of the completed cohort were reviewed and dose-escalation approved by an independent Data Safety Monitoring Board. Blinded study drug was administered as a capsule with 240 ml of water after an overnight fast of at least 10 hours. […] Participants were confined to the study site from 12 hours prior to drug administration, until 72 hours post-dose, and there were subsequent outpatient assessments until 216 hours post-dose.
Blood was obtained for pharmacokinetic assessments pre-dose and then at 0.25, 0.5, 0.75, 1.0, 1.25, 1.5, 2, 2.5, 3, 3.5, 4, 4.5, 5, 5.5, 6, 7, 8, 10, 12, 14, 18, 24, 30, 36, 48, 60, 72, 96, 120, 168 and 216 hours post-dose. Samples were centrifuged and plasma stored at −70° C. until analyzed. Block 24 hour urine collections were obtained following study drug administration for the 30 and 60 mg cohorts. Aliquots were frozen at −20° C. until analyzed.
Plasma noribogaine concentrations were determined in the 3 mg and 10 mg dose groups using a validated, sensitive LCMSMS method. Sample preparation involved double extraction of basified plasma samples with tert-butyl methyl ether, drying the samples under a stream of nitrogen and reconstitution of sample with acetonitrile:B.P. water (5:95, v/v) containing 0.1% (v/v) formic acid. The compounds were separated by a 150×2.0 mm Luna 5 μm C18 column and detected with a triple-quadrupole API 4000 or 5000 mass spectrometer using electrospray ionization in positive mode and multiple reaction monitoring. Noribogaine-d4 was used as the internal standard. The precursor-product ion transition values for noribogaine were m/z 297.6→122.3, and for the internal standard noribogaine-d4 m/z 301.1→122.2. Analyst® software was used for data acquisition and processing. The ratio of the peak area of noribogaine to the internal standard noribogaine-d4 was used for calibration and measurement of the unknown concentration of noribogaine. The lower limit of quantification (LLOQ) was 0.025 ng/ml noribogaine. The calibration curve was between 0.025 and 25.600 ng/ml noribogaine. Mobile phase A was acetonitrile:B.P. water (5:95, v/v) containing 0.1% (v/v) formic acid, and mobile phase B was acetonitrile:B.P. water (95:5, v/v) containing 0.1% (v/v) formic acid. Total run time was 6 minutes. Binary flow: Initial concentration was 8% mobile phase B; hold at 8% mobile phase B for 0.5 minutes and linear rise to 90% mobile phase B over 1.5 minutes; hold at 90% mobile phase B for 1 minute and then drop back to 8% mobile phase B over 0.01 minute. Equilibrate system for 3 minutes. Total run time was 6 minutes. Within- and between-day assay precision was <9%, and within- and between-day assay accuracy was <9%.
Plasma noribogaine concentrations were determined in the 30 mg and 60 mg dose groups using a validated, sensitive LCMSMS method. […]

[2] = Safety and tolerability in healthy volunteers (adverse events, vital signs, ECG); type: in vivo, human
Method: Pulse oximetry and capnography data were collected continuously using a GE Carescape B650 monitoring system from 2 hours prior to dosing and until six hours after dosing, and thereafter at 12, 24, 48 and 72 hours post-dosing. Additional oximetry data were collected at 120, 168 and 216 hours. Pupillary miosis was assessed by pupillometry. Dark-adapted pupil diameter was measured in triplicate using a Neuroptics PLR-200 pupillometer under standardized light intensity (<5 lux) pre-dose, and at 2, 4, 6, 12, 24, 48, 72, 96, 120, 168 and 216 hours post-dosing.
Safety and tolerability of noribogaine were tested in the group of volunteers from Example 1. Cold pressor testing was conducted in 1° C. water according to the method of Mitchell et al. (J Pain 5:233-237, 2004) pre-dose, 6, 24, 48, 72 and 216 hours post-dosing. Safety evaluations included clinical monitoring, recording of adverse events (AEs), safety laboratory tests, vital signs, ECG telemetry from −2 h to 6 h after dosing, and 12-lead electrocardiograms (ECGs) up to 216 hours post-dosing.

[3] = Time to resumption of opioid substitution treatment (OST) in opioid-dependent patients; type: in vivo, human
[4] = Opiate withdrawal scales (COWS, SOWS, OOWS) in opioid-dependent patients; type: in vivo, human; details: single 120 mg dose, first six hours following dosing
Method: Patients were evaluated based on the Clinical Opiate Withdrawal Scale (COWS), Subjective Opiate Withdrawal Scale (SOWS), and Objective Opiate Withdrawal Scale (OOWS) scoring systems over the period of time between administration of noribogaine (or placebo) until resumption of OST. These scales are outlined in Guidelines for the Psychosocially Assisted Pharmacological Treatment of Opioid Dependence, World Health Organization, Geneva (2009), Annex 10, which is incorporated herein by reference in its entirety. The scales measure the intensity of withdrawal symptoms, based on clinical, subjective, and objective indicia.

[5] = QT interval evaluation in opioid-dependent patients; type: in vivo, human; details: 60, 120, 180 mg, first 24 hours post administration
Method: Patients' QT intervals were evaluated at regular time points throughout the study.

[6] = Serum noribogaine pharmacokinetics in opioid-dependent patients (Phase IB); details: 60, 120, 180 mg cohorts
[7] = 3 mg dose group, healthy volunteers
[8] = 10 mg dose group, healthy volunteers
[9] = 30 mg dose group, healthy volunteers

## CC[C@H]1CC2C[C@H]3c4[nH]c5ccc(O)cc5c4CCN(C2)C13 [Noribogaine, noribogaine]
[1]; 3-60 mg single oral doses, healthy volunteers
  Dose-proportionality of Cmax and AUC: increased linearly with dose
[1]; across 3-60 mg dose groups, healthy volunteers
  time of peak concentrations after oral dosing: 2 to 3 h
[1]; across dose groups (3-60 mg), healthy volunteers
  Mean half-life estimates: 28 to 50 h
[1]; single dose of 3 mg free base
  mean AUC/24 hr: 3.1 ng/mL
[1]; single dose of 10 mg free base
  mean AUC/24 hr: 10.6 ng/mL
[1]; single dose of 30 mg free base
  mean AUC/24: 29.2 ng/mL
[1]; single dose of 60 mg free base
  mean AUC/24: 61 ng/mL
[1]; single oral 3 mg dose
  CL/F: 41.4 (7.0) L/h
[1]; single oral 10 mg dose
  CL/F: 42.3 (12.0) L/h
[1]; single oral 30 mg dose
  CL/F: 46.9 (16.4) L/h
[1]; single oral 60 mg dose
  CL/F: 34.0 (11.4) L/h
[2]; [7]
  Adverse events, Mild: Dizziness; also recorded: Epistaxis; also recorded: Headache; also recorded: Back pain
  Adverse events, Moderate: Headache
  number of adverse events reported: five adverse events were reported by two subjects
[2]; [8]
  Adverse events, Mild: Headache
  number of adverse events reported: one adverse event was reported by single subjects
[2]; [9]
  Adverse events, Mild: Headache
  number of adverse events reported: one adverse event was reported by single subjects
[2]; 3-60 mg, healthy volunteers
  changes in oximetry, capnography, respiratory rate: no changes in oximetry or capnography, or changes in respiratory rate
  changes in vital signs or safety laboratory tests: no changes in vital signs or safety laboratory tests of note
[2]; 3-60 mg, healthy volunteers, ECG up to 216 hours
  QTcF values >500 msec: no QTcF values >500 msec at any time
[2]; all dose groups, healthy volunteers
  intensity of adverse events: mild-moderate intensity
[2]; one subject dosed with 10 mg, 24 hours post-dosing
  single increase in QTcF: > 60 ms
[3]; single 120 mg dose
  average time to resumption of opioids (OST): greater than 20 hours
[3]; single 180 mg dose
  average time to resumption of opioids (OST): still longer than untreated patients (7 hours, not shown) or those administered 60 mg noribogaine
[4]
  withdrawal symptoms (COWS, OOWS, SOWS scores): fewer withdrawal symptoms than the other patients
[5]
  QT interval prolongation (ΔQTcl): dose-dependent increase in QT interval prolongation
[6]
  dose dependence of maximum serum concentration (Cmax): increased in a dose-dependent manner
